In US7335636B2, “SPRR1A and axonal regeneration” (Yale University, priority 2001, dated 2008):
“Also recorded” adds a separate entry of the source.

Tests used:
E8 chick DRGs = experiment: Neurite outgrowth of E8 chick DRGs triturated with SPRR1A-derived peptide; type: cell-based; conditions: trituration, 6 hours after plating on laminin
Text: Herpes simplex virus preparation and protein trituration. The coding region of mouse SPRR1A was amplified by PCR with an in-frame C-terminal Myc epitope and ligated to the pHSVprPUC vector. Similarly, the S100C coding region with a Myc tag was ligated to pHSVprPUC vector. The resulting plasmids were transfected into 2-2 cells with Fugene and then superinfected with 5 dl 1.2 herpes simplex virus (HSV) helper virus 1 d later as described previously (Nakamura et al., 1998; Takahashi et al., 1998, 1999). Recombinant virus was amplified through three passages and stored at −80° C. Freshly dissociated DRG neurons were allowed to adhere to cultured dishes for 30 min and then incubated with HSV preparations encoding for SPRR1A, S100C, enhanced green fluorescent protein (EGFP), or Nogo receptor. […]
(§1) DRG cultures and neurite outgrowth analysis. […] After 6-36 hr, cells were fixed and stained, and neurite outgrowth was quantified. Images of each culture were captured with Olympix Software and analyzed with Scion Image (Jin and Strittmatter, 1997; GrandPre et al., 2000; Fournier et al., 2001). The total neurite length for each neuron was determined for 50-100 neurons in each experiment. […]
An SPRR1A-derived peptide acts as an agent to promote axon regeneration. […] This 24 amino acid peptide was triturated into E8 chick DRGs and neurite length was measured 6 hours after the cells were plated on laminin (FIG. 8). […]

adult mouse DRG neurons = experiment: Antisense experiment: neurite outgrowth and branching of adult mouse DRG cultures; type: cell-based
Method: DRG cultures and neurite outgrowth analysis. Embryonic day 7 (E7) chick, embryonic day 13 chick, or adult mouse DRGs were dissected and dissociated with 0.25% trypsin for 15 min at 37° C. For adult mouse DRG preparations, preincubation with 1 mg/ml collagenase was included. For preconditioned adult mouse DRG cultures, sciatic nerve lesions were performed 4 d before death and L3-L5 DRG dissection. Dissociated cells were preplated on tissue culture-treated plastic dishes for 1 hr at 37° C. Non-adherent cells (predominantly neurons) were collected and plated on plastic chamber slides coated with poly-L-lysine (100 μg)/laminin (10 μg/ml). In some cases, the substrate was coated with 45 ng/mm^2 bovine CNS myelin or 34 ng/mm^2 purified GST-Nogo-66 protein as described previously (Jin and Strittmatter, 1997; GrandPre et al., 2000; Fournier et al., 2001). After 6-36 hr, cells were fixed and stained, and neurite outgrowth was quantified. Images of each culture were captured with Olympix Software and analyzed with Scion Image (Jin and Strittmatter, 1997; GrandPre et al., 2000; Fournier et al., 2001). The total neurite length for each neuron was determined for 50-100 neurons in each experiment. The total number of branch points was divided by the total neurite length to obtain a branching index.
Antisense experiment. Phosphorothioate sense and antisense oligonucleotides spanning the translation initiation site (italic type) of the mouse sprr1a sequence (sense, p-thio-[…] (SEQ ID NO:4); antisense, p-thio-[…] (SEQ ID NO:5)) were generated. Adult mouse DRG cultures were incubated with purified oligonucleotides at concentrations of 10-50 μM. Immunoblot and immunohistological analysis was performed after 36 hr of culture.

SPRR1A = experiment: Immunoblot for SPRR1A protein in oligonucleotide-treated adult mouse DRG cultures; type: cell-based; conditions: preconditioned adult DRG neurons, 36 hr culture with oligonucleotide 10-50 μM
chick E7 DRG neurons = experiment: Neurite outgrowth of embryonic chick DRG neurons after HSV infection or protein trituration; type: cell-based
Text: Herpes simplex virus preparation and protein trituration. The coding region of mouse SPRR1A was amplified by PCR with an in-frame C-terminal Myc epitope and ligated to the pHSVprPUC vector. Similarly, the S100C coding region with a Myc tag was ligated to pHSVprPUC vector. The resulting plasmids were transfected into 2-2 cells with Fugene and then superinfected with 5 dl 1.2 herpes simplex virus (HSV) helper virus 1 d later as described previously (Nakamura et al., 1998; Takahashi et al., 1998, 1999). Recombinant virus was amplified through three passages and stored at −80° C. Freshly dissociated DRG neurons were allowed to adhere to cultured dishes for 30 min and then incubated with HSV preparations encoding for SPRR1A, S100C, enhanced green fluorescent protein (EGFP), or Nogo receptor. Recombinant SPRR1A and S100C protein were triturated into dissociated DRGs by repetitive pipetting in the presence of 1 mg/ml of protein as described previously (Jin and Strittmatter, 1997).
as §1

F-actin = experiment: Actin cosedimentation and immunoprecipitation assays; type: binding; conditions: in the presence or absence of S100C protein
Method: Actin cosedimentation assay. The actin cosedimentation protocol has been described previously (Gonzalez et al., 1998; Sakaguchi et al., 2000). Purified monomeric actin (G-actin, 25 μM; Cytoskeleton, Denver, Colo.) was incubated with recombinant SPRR1A (200 nM), GST-S100C (2 μM), or GST (2 μM) in an actin polymerization buffer (5 mM Tris, pH 8.0, 1.0 mM CaCl2, 1.0 mM DTT, 0.2 mM ATP, 100 mM KCl, 2.0 mM MgCl2) at room temperature for 60 min. Polymerized actin was sedimented by centrifugation at […] for 1 hr. Equal volumes of the particulate and supernatant fractions were analyzed by SDS-PAGE and immunoblotting.

With “acetyl-HPKAPEPCNPKVPEPCQPKVPEPC-amide (Ac-HPKAPEPCNPKVPEPCQPKVPEPC-NH2; cysteine pairing not given here; listed as Mus musculus) [SEQ ID NO:3, 24 amino acid peptide consisting of three XPKXPEPC octapeptide repeats of SPRR1A]” the “enhancement of average neurite outgrowth” value (E8 chick DRGs; 5-25 μM peptide) was 1.7 fold and the “enhancement of neurite outgrowth” value (E8 chick DRGs; 100-500 μM peptide) was 2.5 fold.

With “p-thio-GTGGGAACTCATGGTTAGAT (all phosphorothioate, sugars by position and methylation of C not given here) [antisense oligonucleotide]” the “neurite length, preconditioned neurons” value (adult mouse DRG neurons; adult preconditioned DRG neurons, 36 hr, vs sense-treated) was “significant decrease in neurite length”, the “axonal branching index, preconditioned neurons” value (adult mouse DRG neurons; adult preconditioned DRG neurons, vs sense-treated) was “marked increase” and the “effect on naive neurons (do not express SPRR1A)” value (adult mouse DRG neurons; naive adult mouse DRG neurons) was “lack of effect”. The “SPRR1A protein level (immunoblot, immunohistochemistry)” value (SPRR1A) was “significantly and selectively decreased; also recorded: decreases to nearly basal levels”.

B1: SPRR1A: Recombinant mouse small proline-rich repeat protein SPRR1A purified from transformed Escherichia coli (protein, listed as Mus musculus)
chain: MSSHQQKQPCTVPPQLHQQQVKQPCQPPPQEPCAPKTKDPCHPVPEPCNPKGPEPCHPKAPEPCHPKAPEPCNPKVPEPCQPKVPEPCQPKVPEPCNPKVPEPCQPKAPEPCHPKAPEPCHPVVPEPCPSTVTPSPYQQKTKQK
In the case of B1, the “neurite outgrowth, protein added to the culture medium without trituration” value (chick E7 DRG neurons; no trituration) is reported as “does not alter outgrowth”, the “neurite outgrowth in neurons triturated with purified protein” value (chick E7 DRG neurons; recombinant protein triturated into DRG neurons, 1 mg/ml) is reported as “increase in neurite outgrowth” and the “direct physical association with F-actin” value (F-actin) is reported as “no direct physical association”.
